# Test results: patent publication US8263606B2 (Xenon Pharmaceuticals Inc., priority 2008, dated 2012)
# Assays:
# CYP3A4 = CYP3A4 (Homo sapiens, UniProt P08684); test: Cytochrome P450 (CYP450) Inhibition Assay, CYP3A4 (Vivid fluorescence, BOMCC substrate); conditions: human, P450 Baculosomes (recombinant CYP3A4), probe BOMCC (Vivid substrate)
# Sequence of CYP3A4 (P08684 whole entry): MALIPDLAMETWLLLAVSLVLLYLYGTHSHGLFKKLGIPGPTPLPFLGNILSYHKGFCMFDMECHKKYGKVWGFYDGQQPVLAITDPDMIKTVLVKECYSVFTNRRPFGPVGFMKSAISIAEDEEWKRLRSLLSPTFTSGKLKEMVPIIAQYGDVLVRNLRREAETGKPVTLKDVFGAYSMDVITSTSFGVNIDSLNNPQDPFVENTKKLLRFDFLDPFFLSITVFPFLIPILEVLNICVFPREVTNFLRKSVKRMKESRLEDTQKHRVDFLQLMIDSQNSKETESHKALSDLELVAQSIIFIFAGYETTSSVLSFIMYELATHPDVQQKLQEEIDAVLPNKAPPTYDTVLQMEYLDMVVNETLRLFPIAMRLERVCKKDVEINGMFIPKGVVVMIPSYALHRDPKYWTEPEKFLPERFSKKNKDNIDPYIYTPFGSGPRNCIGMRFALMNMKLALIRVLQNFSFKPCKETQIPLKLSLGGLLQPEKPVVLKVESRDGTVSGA
SMILES,melting point,inhibition at 10 µM (CYP3A4)
"CN1C(=O)C2(COc3cc4c(cc32)OCCO4)c2c(C(=O)Nc3ccc(F)cc3)cccc21 (stereo not drawn) [Example 16.47, N-(4-fluorophenyl)-1′-methyl-2′-oxo-1′,2,2′,3-tetrahydrospiro[furo[2,3-g][1,4]benzodioxine-8,3′-indole]-4′-carboxamide]",> 250 °C,< 50%
"CCCCCCC(=O)Nc1cccc2c1C1(COc3cc4c(cc31)OCCO4)C(=O)N2C (stereo not drawn) [Example 16.33, N-(1′-methyl-2′-oxo-1′,2,2′,3-tetrahydrospiro[furo[2,3-g][1,4]benzodioxine-8,3′-indol]-4′-yl)heptanamide]",123 to 124 °C,> 50%
"CC(=O)Nc1cccc2c1C1(COc3cc4c(cc31)OCCO4)C(=O)N2C (stereo not drawn) [Example 16.25, N-(1′-methyl-2′-oxo-1′,2,2′,3-tetrahydrospiro[furo[2,3-g][1,4]benzodioxine-8,3′-indol]-4′-yl)acetamide]",182 to 184 °C,< 50%
"CN1C(=O)C2(COc3cc4c(cc32)OCCO4)c2c(C(=O)NC3CCCCC3)cccc21 (stereo not drawn) [Example 16.38, N-cyclohexyl-1′-methyl-2′-oxo-1′,2,2′,3-tetrahydrospiro[furo[2,3-g][1,4]benzodioxine-8,3′-indole]-4′-carboxamide]",139 to 140 °C,< 50%
"COCCOCC(=O)Nc1cccc2c1C1(COc3cc4c(cc31)OCCO4)C(=O)N2C (stereo not drawn) [Example 16.34, 2-(2-methoxyethoxy)-N-(1′-methyl-2′-oxo-1′,2,2′,3-tetrahydrospiro[furo[2,3-g][1,4]benzodioxine-8,3′-indol]-4′-yl)acetamide]",122 to 123 °C,< 50%
"CN1C(=O)C2(COc3cc4c(cc32)OCCO4)c2c(Oc3ccc(F)cc3)cccc21 (stereo not drawn) [Example 16.87, 4′-(4-fluorophenoxy)-1′-methyl-2,3-dihydrospiro[furo[2,3-g][1,4]benzodioxine-8,3′-indol]-2′(1′H)-one]",151 to 153 °C,> 50%
"COc1cccc(Oc2cccc3c2C2(COc4cc5c(cc42)OCCO5)C(=O)N3C)c1 (stereo not drawn) [Example 16.79, 4′-(3-methoxyphenoxy)-1′-methyl-2,3-dihydrospiro[furo[2,3-g][1,4]benzodioxine-8,3′-indol]-2′(1′H)-one]",166 to 168 °C,> 50%
"O=C1Nc2cccc(O)c2C12COc1cc3c(cc12)OCCO3 (stereo not drawn) [Example 16.51, 4′-hydroxy-2,3-dihydrospiro[furo[2,3-g][1,4]benzodioxine-8,3′-indol]-2′(1′H)-one]",> 250 °C,< 50%

# Other lines, results leading:
melting point,inhibition at 10 µM (CYP3A4),SMILES
201 to 202 °C,> 50%,"CN1C(=O)C2(COc3cc4c(cc32)OCCO4)c2c(-c3cc[nH]n3)cccc21 (stereo not drawn) [Example 16.67, 1′-methyl-4′-(1H-pyrazol-3-yl)-2,3-dihydrospiro[furo[2,3-g][1,4]benzodioxine-8,3′-indol]-2′(1′H)-one]"
181 to 183 °C,> 50%,"CN1C(=O)C2(COc3cc4c(cc32)OCCO4)c2c(OCc3ccccn3)cccc21 (stereo not drawn) [Example 16.85, 1′-methyl-4-(pyridine-2-ylmethoxy)-2,3-dihydrospiro[furo[2,3-g][1,4]benzodioxine-8,3′-indol]-2′(1′H)-one]"
178 to 180 °C,> 50%,"CN1C(=O)C2(COc3cc4c(cc32)OCCO4)c2c(-c3ccoc3)cccc21 (stereo not drawn) [Example 16.68, 4′-furan-3-yl-1′-methyl-2,3-dihydrospiro[furo[2,3-g][1,4]benzodioxine-8,3′-indol]-2′(1′H)-one]"
243 to 245 °C,< 50%,"Nc1cccc2c1C1(COc3cc4c(cc31)OCCO4)C(=O)N2Cc1ncccc1C(F)(F)F (stereo not drawn) [Example 16.50, 4′-amino-1′-{[3-(trifluoromethyl)pyridin-2-yl]methyl}-2,3-dihydrospiro[furo[2,3-g][1,4]benzodioxine-8,3′-indol]-2′(1′H)-one]"
